For series [1] the following is noted: oral atenolol 50 mg, oral scopolamine HBr 0.3 mg; baseline and during sauna heat; cited from earlier work.
Series [2] concerns the target muscarinic acetylcholine receptors, all five human receptor subtypes. As to conditions: cited from earlier work.
For series [3] the following is noted: oral atenolol 50-200 mg; ~10 bpm on placebo; cited from earlier work.
The nature of series [4]: taste and mouth paresthesia of dose forms in humans.
For series [5] the following is noted: healthy volunteers, CO2 inhalation; cited from earlier work.
The conditions of series [6]: cited from earlier work.
The mark [7] stands for this setting: oral 40 mg one hour prior to TSST.
The mark [8] stands for this setting: liquid compositions, under or on the tongue.
The mark [9] stands for this setting: sublingual solid dose forms, HCl.

Entries after “also recorded” stand apart in the source; their conditions may differ. Counter-ions that a name gives are not always drawn. Like-named read-outs stand apart in the source and are kept apart here.

`CN1[C@@H]2C[C@@H](OC(=O)[C@H](CO)c3ccccc3)C[C@H]1[C@@H]1O[C@@H]12` [scopolamine]: in series [1], the “cardiovascular effects (heart rate, blood pressure)” value is given as “essentially no effect”. Besides, in series [2], the Ki (commonly a measure of affinity in units of concentration, obtained from inhibition or displacement) was 0.34 to 5.3 nM.

For the compound `CC(C)NCC(O)COc1ccc(CC(N)=O)cc1` (stereo not drawn) [atenolol], the suppresses heart rate in series [3] is reported as 23-24 bpm. Moreover, in series [1], the “cardiovascular effects (heart rate, blood pressure)” value is “reduced heart rate and blood pressure”. In series [4] (sublingual solid dose forms), the mouth/tongue paresthesia entry is “neither property was observed; also recorded: lacked these undesirable characteristics; also recorded: do not produce mouth paresthesia” and the taste result is recorded as “neither property was observed; also recorded: lacked these undesirable characteristics; also recorded: do not have a taste”.

For the compound `CC(C)NCC(O)COc1cccc2ccccc12` (stereo not drawn) [propranolol], in series [5], the heart rate result was “significantly decreased” and the psychic anxiolytic benefit entry was “did not provide”. Moreover, in series [4] (sublingual solid dose forms), the mouth/tongue paresthesia result is on record as “Paresthesia” and the taste result is recorded as “undesirable taste”. Also, in series [6] (80 mg one hour prior to TSST), the “BP or subjective stress” value is given as “did not significantly affect”, the heart rate result is “significantly reduced” and the salivary cortisol result was “increased”. In addition, the salivary cortisol response result in series [6] (daily oral 80 mg) is “did not affect”. Further, in series [6] (setting [7]), the “cognitive flexibility during stress” value is reported as “enhanced”, the heart rate result is “significantly reduced” and the systolic blood pressure entry is reported as “reduced”.

As for `CC(C)NCC(O)COc1cccc2ccccc12` (stereo not drawn) [Propranolol HCl], in series [4] (setting [8]), the mouth paresthesia entry is listed as “produces mouth paresthesia”; the taste entry is ““acidic” and “medicine” taste”. In series [4] (setting [9]), the mouth/tongue paresthesia entry was “delayed paresthesia of the tongue”; the taste entry is ““acidic” and “medicine” taste”.

Source of the values: patent US9517231B2, “Methods and pharmaceutical compositions for the treatment of symptoms of anxiety and panic using beta adrenergic receptor antagonist and muscarinic receptor antagonist combinations” (priority 2014, dated 2016).
